Assay results taken from patent US3980703A, “Extraction of carboxylic acids from dilute aqueous solutions” (The Dow Chemical Company, priority 1975, dated 1976).
One block for each compound: values may come before it.

Columns and labels:
Assay type in all cases: physicochemical
[1] = Extraction of acetic acid from 18% aqueous NaCl with polar extractants, distribution coefficient by radiometric counting (Example 1); conditions: 1920 ppm acetic acid in 18% aqueous NaCl, equal volumes, 30 min
Source text: (§1) A trace quantity of radioactive carbon-14 labeled acetic acid was included. Portions of this solution were shaken for thirty minutes with equal volumes of extractant solutions having the compositions set out in the following table. The phases were allowed to disengage, separated and their relative acetic acid concentrations determined by radiometric counting in a scintillation counter. The distribution coefficient (ratio of acetic acid concentrations in organic and aqueous phase) for each extraction is also given in the table.

[2] = Extraction of acetic acid with TOPO solutions, distribution coefficient (Example 2); conditions: about 0.025 molar acid
Source text: as §1, with “A solution of 1920 ppm (approximately 0.2 percent) of acetic acid in 18% aqueous NaCl was made up. A” for “A”
(§2) In the manner of Example 1, about 0.025 molar aqueous solutions of acetic, glycolic and lactic acids were extracted with equal volumes of TOPO (trioctyl phosphine oxide) solutions in kerosene or Chevron 3.

[3] = Extraction of lactic acid with TOPO solutions, distribution coefficient (Example 2); conditions: about 0.025 molar acid
Source text: as §1, with “A solution of 1920 ppm (approximately 0.2 percent) of acetic acid in 18% aqueous NaCl was made up. A” for “A”
as §2

[4] = Extraction of glycolic acid with TOPO solutions, distribution coefficient (Example 2); conditions: for Distribution Coefficient For: Glycolic: about 0.025 molar acid
Source text: as §1, with “A solution of 1920 ppm (approximately 0.2 percent) of acetic acid in 18% aqueous NaCl was made up. A” for “A”
as §2

[5] = Extraction of acetic acid with tetra (n-butyl) urea, distribution coefficient (Example 3); conditions: 0.5 M extractant in Chevron 25; 0.2% acetic acid in 18% sodium chloride
Source text: (§3) A 1.9% solution of acrylic acid in water was equilibrated with an equal volume of a 28% solution of tetra-(n-butyl) urea in cyclohexane. […] A similar experiment with 0.2% acetic acid in 18% sodium chloride as the aqueous phase, and 0.5 M tetrabutyl urea in Chevron 25 as the extractant, gave a distribution coefficient of 0.40.

[6] = Extraction of acrylic acid with tetra (n-butyl) urea, distribution coefficient by titration (Example 3); conditions: 28% extractant in cyclohexane; 1.9% acrylic acid in water; equal volumes
Source text: as §3

[7] = 0.2 M TOPO in kerosene, aqueous phase 1 Molar NaCl
[8] = 0.5 M TOPO in Chevron 3, aqueous phase 1 Molar NaCl
[9] = 0.5 M TOPO in Chevron 3, aqueous phase water

Distribution coefficient (ratio of acetic acid concentrations in organic and aqueous phase) ([1]; 0.1 M extractant in Chevron 25): 0.18 | Distribution coefficient (ratio of acetic acid concentrations in organic and aqueous phase) ([1]; 0.5 M extractant in Chevron 25): 1.00
Compound: CCCC[S+]([O-])CCCC [Di(n-butyl) sulfoxide]

Distribution coefficient (ratio of acetic acid concentrations in organic and aqueous phase) ([1]; 0.5 M extractant in Chevron 25): 6.1 | Distribution Coefficient For: Acetic [2, 7]: 1.46 | Distribution Coefficient For: Acetic [2, 8]: 3.2 | Distribution Coefficient For: Acetic [2, 9]: 2.8 | Distribution Coefficient For: Lactic [3, 7]: 0.40 | Distribution Coefficient For: Lactic [3, 8]: 1.4 | Distribution Coefficient For: Lactic [3, 9]: 1.02 | Distribution Coefficient For: Glycolic [4, 7]: 0.13 | Distribution Coefficient For: Glycolic [4, 8]: 0.39 | Distribution Coefficient For: Glycolic [4, 9]: 0.35
Compound: CCCCCCCCP(=O)(CCCCCCCC)CCCCCCCC [Trioctyl phosphine oxide, trioctyl phosphine oxide]

Compound: O=C(O)CO [glycolic acid]
extraction effectiveness of glycolic acid relative to acetic and lactic acids ([4]; TOPO solutions in kerosene or Chevron 3): much less effectively extracted than acetic and lactic acids

distribution coefficient (acetic acid) [5]: 0.40 | distribution coefficient for the acrylic acid (organic/aqueous) [6]: 1.05
Compound: CCCCN(CCCC)C(=O)N(CCCC)CCCC [tetra-(n-butyl) urea]
